# Molecular target: T1, TNF-α (Homo sapiens, UniProt P01375)
# T1 construct: purchased R&D 210-TA-020/CF
# Experiment: TNF-α Induced HEK Blue Cellular Assay (secreted alkaline phosphatase expression, QUANTI-Blue)
# Type: cell-based
# Settings: HEK Blue TNFα reporter cells; TNF-α 100 μg/ml; 24 hrs at 37° C.; inhibition of secreted alkaline phosphatase; read-out: IC50 value
# Method: TNF-α Induced HEK Blue Cellular Assay
# Test articles were diluted in DMSO and serially diluted into 384 well assay plate (Corning 3765), at final concentrations ranging from […] to 0.5 nM. HEK Blue™ TNFα reporter cells were added at a final density of 10,000 cell per well in assay media [DMEM (Gibco, cat #21063-029), 10% fetal bovine serum (ExcelBio, cat #FND500), 1% Penicillin-Streptomycin (Solarbio, cat #P1400-100]. TNF-α (R&D 210-TA-020/CF) was then added to the assay plate at a final concentration of […]. This plate was then incubated for 24 hrs at 37° C. and 5% CO2. Secreted alkaline phosphatase expression was then measured using QUANTI-Blue™ (Invivogen), according to manufacturer instructions and read on an Envision microplate reader at 620 nm.
# Inhibition data for test compound over a range of concentration was plotted as percentage inhibition of the test compound (100%=maximum inhibition). IC50 values were determined after correcting for background [(sample read-mean of low control)/(mean of high control-mean of low control)] whereby the low control is DMSO without stimulation and high control is DMSO with stimulation. The IC50 is defined as the concentration of test compound which produces 50% inhibition and was quantified using the 4 parameter logistic equation to fit the data.
# T1 sequence (P01375 77-233 limits assumed): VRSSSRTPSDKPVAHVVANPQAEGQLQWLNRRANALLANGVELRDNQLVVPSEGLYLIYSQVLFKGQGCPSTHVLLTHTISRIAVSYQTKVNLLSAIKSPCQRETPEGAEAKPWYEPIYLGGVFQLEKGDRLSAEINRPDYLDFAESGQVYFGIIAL
row,Structure (SMILES),IC50 [µM]
1,"[2H]C([2H])([2H])N1C(=O)c2cccc(OC(F)F)c2[C@H]2C[C@@H]1c1nc3ccc(C#CC4CCNCC4)cc3n12 [Example 52, (7R,14R)-1-(difluoromethoxy)-6-(methyl-d3)-11-(piperidin-4-ylethynyl)-6,7-dihydro-7,14-methanobenzo[f]benzo[4,5]imidazo[1,2-a][1,4]diazocin-5(14H)-one]",< 0.1
2,"[2H]C([2H])([2H])N1C(=O)c2cccc(OC(F)F)c2[C@H]2C[C@@H]1c1nc3ccc(C#Cc4ccc(P(C)(C)=O)nc4)cc3n12 [Example 112, (7R,14R)-1-(difluoromethoxy)-11-((6-(dimethylphosphoryl)pyridin-3-yl)ethynyl)-6-(methyl-d3)-6,7-dihydro-7,14-methanobenzo[f]benzo[4,5]imidazo[1,2-a][1,4]diazocin-5(14H)-one]",< 0.1
3,"[2H]C([2H])([2H])N1C(=O)c2cccc(OC(F)F)c2[C@H]2C[C@@H]1c1nc3ccc(C#CC(O)CC)cc3n12 (single isomer, unassigned) [Example 209, (7R,14R)-1-(difluoromethoxy)-11-((S or R)-3-hydroxypent-1-yn-1-yl)-6-(methyl-d3)-6,7-dihydro-7,14-methanobenzo[f]benzo[4,5]imidazo[1,2-a][1,4]diazocin-5(14H)-one]",10 to 30
4,"[2H]C([2H])([2H])N1C(=O)c2cccc(OC(F)F)c2[C@H]2C[C@@H]1c1nc3ccc(C#CC4CN(C(=O)C5CC5)C4)cc3n12 [Example 127, (7R,14R)-11-((1-(cyclopropanecarbonyl)azetidin-3-yl)ethynyl)-1-(difluoromethoxy)-6-(methyl-d3)-6,7-dihydro-7,14-methanobenzo[f]benzo[4,5]imidazo[1,2-a][1,4]diazocin-5(14H)-one]",< 0.1
5,"[2H]C([2H])([2H])N1C(=O)c2cccc(OC(F)F)c2[C@H]2C[C@@H]1c1nc3ccc(C#CCCN4CC(F)(F)C4)cc3n12 [Example 233, (7R,14R)-11-(4-(3,3-difluoroazetidin-1-yl)but-1-yn-1-yl)-1-(difluoromethoxy)-6-(methyl-d3)-6,7-dihydro-7,14-methanobenzo[f]benzo[4,5]imidazo[1,2-a][1,4]diazocin-5(14H)-one]",< 0.1
6,"[2H]C([2H])([2H])N1C(=O)c2cccc(OC(F)F)c2[C@H]2C[C@@H]1c1nc3ccc(C#Cc4cnc(NC(C)=O)nc4)cc3n12 [Example 259, N-(5-(((7R,14R)-1-(difluoromethoxy)-6-(methyl-d3)-5-oxo-5,6,7,14-tetrahydro-7,14-methanobenzo[f]benzo[4,5]imidazo[1,2-a][1,4]diazocin-11-yl)ethynyl)pyrimidin-2-yl)acetamide]",< 0.1
7,"[2H]C([2H])([2H])N1C(=O)c2cccc(OC(F)F)c2[C@H]2C[C@@H]1c1nc3ccc(C#Cc4ccc(NC(C)=O)nc4)cc3n12 [Example 255, N-(5-(((7R,14R)-1-(difluoromethoxy)-6-(methyl-d3)-5-oxo-5,6,7,14-tetrahydro-7,14-methanobenzo[f]benzo[4,5]imidazo[1,2-a][1,4]diazocin-11-yl)ethynyl)pyridin-2-yl)acetamide]",< 0.1
8,"[2H]C([2H])([2H])N1C(=O)c2cccc(OC(F)F)c2[C@H]2C[C@@H]1c1nc3ccc(C#CC4CN(C5COC5)C4)cc3n12 [Example 224, (7R,14R)-1-(difluoromethoxy)-6-(methyl-d3)-11-((1-(oxetan-3-yl)azetidin-3-yl)ethynyl)-6,7-dihydro-7,14-methanobenzo[f]benzo[4,5]imidazo[1,2-a][1,4]diazocin-5(14H)-one]",< 0.1
9,"[2H]C([2H])([2H])N1C(=O)c2cccc(OC(F)F)c2[C@H]2C[C@@H]1c1nc3ccc(C#CC4CN(C(=O)C(C)(C)C#N)C4)cc3n12 [Example 193, 3-(3-(((7R,14R)-1-(difluoromethoxy)-6-(methyl-d3)-5-oxo-5,6,7,14-tetrahydro-7,14-methanobenzo[f]benzo[4,5]imidazo[1,2-a][1,4]diazocin-11-yl)ethynyl)azetidin-1-yl)-2,2-dimethyl-3-oxopropanenitrile]",0.1 to 1
10,"[2H]C([2H])([2H])N1C(=O)c2cccc(OC(F)F)c2[C@H]2C[C@@H]1c1nc3ccc(C#CC(O)CC(C)(C)O)cc3n12 (single isomer, unassigned) [Example 221, (7R,14R)-1-(difluoromethoxy)-11-((S or R)-3,5-dihydroxy-5-methylhex-1-yn-1-yl)-6-(methyl-d3)-6,7-dihydro-7,14-methanobenzo[f]benzo[4,5]imidazo[1,2-a][1,4]diazocin-5(14H)-one]",0.1 to 1
11,"[2H]C([2H])([2H])N1C(=O)c2cccc(OC(F)F)c2[C@H]2C[C@@H]1c1nc3ccc(C#CC(C)(C)CO)cc3n12 [Example 191, (7R,14R)-1-(difluoromethoxy)-11-(4-hydroxy-3,3-dimethylbut-1-yn-1-yl)-6-(methyl-d3)-6,7-dihydro-7,14-methanobenzo[f]benzo[4,5]imidazo[1,2-a][1,4]diazocin-5(14H)-one]",10 to 30
12,"[2H]C([2H])([2H])N1C(=O)c2cccc(OC(F)F)c2[C@H]2C[C@@H]1c1nc3ccc(C#CCC(O)C(C)O)cc3n12 (single isomer, unassigned) [Example 246, (7R,14R)-1-(difluoromethoxy)-11-((4R or 4S,5R or 5S)-4,5-dihydroxyhex-1-yn-1-yl)-6-(methyl-d3)-6,7-dihydro-7,14-methanobenzo[f]benzo[4,5]imidazo[1,2-a][1,4]diazocin-5(14H)-one]",< 0.1
13,"[2H]C([2H])([2H])N1C(=O)c2cccc(OC(F)F)c2[C@H]2C[C@@H]1c1nc3ccc(C#Cc4cnc(N)nc4)cc3n12 [Example 249, (7R,14R)-11-((2-aminopyrimidin-5-yl)ethynyl)-1-(difluoromethoxy)-6-(methyl-d3)-6,7-dihydro-7,14-methanobenzo[f]benzo[4,5]imidazo[1,2-a][1,4]diazocin-5(14H)-one]",< 0.1
14,"[2H]C([2H])([2H])N1C(=O)c2cccc(OC(F)F)c2[C@H]2C[C@@H]1c1nc3ccc(C#C[C@@H](C)N)cc3n12 [Example 50, (7R,14R)-11-((R)-3-aminobut-1-yn-1-yl)-1-(difluoromethoxy)-6-(methyl-d3)-6,7-dihydro-7,14-methanobenzo[f]benzo[4,5]imidazo[1,2-a][1,4]diazocin-5(14H)-one]",< 0.1
15,"[2H]C([2H])([2H])N1C(=O)c2cccc(OC(F)F)c2[C@H]2C[C@@H]1c1nc3ccc(C#CCO)cc3n12 [Example 144, (7R,14R)-1-(difluoromethoxy)-11-(3-hydroxyprop-1-yn-1-yl)-6-(methyl-d3)-6,7-dihydro-7,14-methanobenzo[f]benzo[4,5]imidazo[1,2-a][1,4]diazocin-5(14H)-one]",0.1 to 1
16,"[2H]C([2H])([2H])N1C(=O)c2cccc(OC(F)F)c2[C@H]2C[C@@H]1c1nc3ccc(C#CCC(F)(F)F)cc3n12 [Example 108, (7R,14R)-1-(difluoromethoxy)-6-(methyl-d3)-11-(4,4,4-trifluorobut-1-yn-1-yl)-6,7-dihydro-7,14-methanobenzo[f]benzo[4,5]imidazo[1,2-a][1,4]diazocin-5(14H)-one]",< 0.1
17,"[2H]C([2H])([2H])N1C(=O)c2cccc(OC(F)F)c2[C@H]2C[C@@H]1c1nc3ccc(C#Cc4cncc(F)c4)cc3n12 [Example 31, (7R,14R)-1-(difluoromethoxy)-11-((5-fluoropyridin-3-yl)ethynyl)-6-(methyl-d3)-6,7-dihydro-7,14-methanobenzo[f]benzo[4,5]imidazo[1,2-a][1,4]diazocin-5(14H)-one]",< 0.1
18,"[2H]C([2H])([2H])N1C(=O)c2cccc(OC(F)F)c2[C@H]2C[C@@H]1c1nc3ccc(C#CC4CC(F)(F)C4)cc3n12 [Example 150, (7R,14R)-11-((3,3-difluorocyclobutyl)ethynyl)-1-(difluoromethoxy)-6-(methyl-d3)-6,7-dihydro-7,14-methanobenzo[f]benzo[4,5]imidazo[1,2-a][1,4]diazocin-5(14H)-one]",< 0.1
19,"[2H]C([2H])([2H])N1C(=O)c2cccc(OC(F)F)c2[C@H]2C[C@@H]1c1nc3ccc(C#CCNCC)cc3n12 [Example 65, (7R,14R)-1-(difluoromethoxy)-11-(3-(ethylamino)prop-1-yn-1-yl)-6-(methyl-d3)-6,7-dihydro-7,14-methanobenzo[f]benzo[4,5]imidazo[1,2-a][1,4]diazocin-5(14H)-one]",10 to 30
20,"[2H]C([2H])([2H])N1C(=O)c2cccc(OC(F)F)c2[C@H]2C[C@@H]1c1nc3ccc(C#CC4CC(O)C4)cc3n12 (stereo partly drawn) [Example 110, (7R,14R)-1-(difluoromethoxy)-11-((3-hydroxycyclobutyl)ethynyl)-6-(methyl-d3)-6,7-dihydro-7,14-methanobenzo[f]benzo[4,5]imidazo[1,2-a][1,4]diazocin-5(14H)-one]",< 0.1
21,"[2H]C([2H])([2H])N1C(=O)c2cccc(OC(F)F)c2[C@H]2C[C@@H]1c1nc3ccc(C#CC4(C)COC4)cc3n12 [Example 96, (7R,14R)-1-(difluoromethoxy)-6-(methyl-d3)-11-((3-methyloxetan-3-yl)ethynyl)-6,7-dihydro-7,14-methanobenzo[f]benzo[4,5]imidazo[1,2-a][1,4]diazocin-5(14H)-one]",< 0.1
